Source: patent US20100086931A1, “METHOD FOR ASSAYING ACTION OF ANTITUMOR AGENT USING DECREASE IN GENE EXPRESSION LEVEL AS INDEX” (Eisai R&D Management Co., Ltd., priority 2007, published 2010)

Tested on: human colon carcinoma cell strain WiDr
Test: Microarray analysis (Human Genome U133 plus 2.0 array) of mRNA expression in WiDr cells treated with compound A
Assay type: cell-based
Conditions: 2.8 nM, 6 h, ratio to control
Method: Microarray analysis (Human Genome U133 plus 2.0 array: Affymetrix) was carried out using RNA purified from human colon carcinoma cell strain WiDr treated with 2.8 nM and 14 nM of (8E,12E,14E)-7-((4-Cycloheptylpiperazin-1-yl)carbonyl)oxy-3,6,16,21-tetrahydroxy-6,10,12,16,20-pentamethyl-18,19-epoxytricosa-8,12,14-trien-11-olide (hereinafter also referred to as “compound A”) for six hours.
WiDr cells were first suspended in RPMI1640 medium (containing 10% FBS, penicillin, and streptomycin) and seeded in a 10 cm dish (2×10^6 cells/dish). After an overnight culture in an incubator with 5% carbon dioxide gas at 37° C., the medium was changed with medium containing 2.8 nM and 14 nM of compound A or containing vehicle alone. After cultured additional six hours, TRI reagent (SIGMA) was added to cells, and the cells were harvested. RNA was purified in accordance with the protocol of TRI reagent, followed by further purification with RNeasy (QIAGEN). Absorbance at 260 nm was measured to quantify an amount of RNA.
Subsequently, single stranded cDNA synthesis, double stranded cDNA synthesis, biotin-labeled cRNA synthesis, and cRNA fragmentation in order were carried out from 5-10 μg (WiDr 10 μg, PBMC 5 μg) of total RNA from the control cells and the treated cells, by using One-Cycle Target Labeling and Control Reagents (Affymetrix). cRNA probe was used for hybridization with Human Genome U133 Plus 2.0 Array (Affymetrix). The array was then washed and stained, and luminescence intensity was measured by a scanner.
The RMA method was applied to 33 of .cel files obtained in the microarray experiment and log signal intensity at a gene level normalized with log signal intensity at a probe level was obtained. By subtracting the mean between control 1 and control 3 from the mean between log signal intensity 1 and log signal intensity 3 for each case, the log signal intensity was converted into a log signal ratio to the control. A t-test was conducted between each log signal intensity and control, and candidate genes were narrowed down in the basis of a p-value, a log signal ratio, and a signal value. Specifically, genes showing that the P value was 5% or less; the expression level in the untreated (control) is 100 or more by signal value; and the expression level when treated with both 2.8 nM and 14 nM of compound A is, compared to the control, 25% or less, were picked out. The software used is R2.2.1 (http://www.r-project.org/), affy package 1.8.1 (http://www.bioconductor.org).
Genes showing that, by the treatment with compound A, the P value was 5% or less; the expression level in the untreated (control) is 100 or more by signal value; and the expression level when treated with both 2.8 nM and 14 nM of compound A is, compared to the control, 25% or less, and results thereof were shown in Table 1. Probe ID used in Table 1 represents Human Genome U133 Plus 2.0 Array Probeset ID. In Table 1, for each gene evaluated, gene name (Gene Name), abbreviated name (Gene Symbol), accession number (Accession), alias name (Synonym), Probe set number in Human Genome U133 Plus 2.0 Array (Human Genome U133 Plus 2.0 Array Probeset ID), the expression level upon the six-hour treatment with 2.8 nM of E7107 (2.8 nM (6 h)), and the expression level upon the six-hour treatment with 14 nM of E7107 (14 nM (6 h)) were respectively shown.

CCC(O)C(C)C1OC1CC(C)(O)/C=C/C=C(\C)C1OC(=O)CC(O)CCC(C)(O)C(OC(=O)N2CCN(C3CCCCCC3)CC2)/C=C/C1C (stereo not drawn) [E7107, (8E,12E,14E)-7-((4-Cycloheptylpiperazin-1-yl)carbonyl)oxy-3,6,16,21-tetrahydroxy-6,10,12,16,20-pentamethyl-18,19-epoxytricosa-8,12,14-trien-11-olide]
ADPRHL2 mRNA expression level (223097_at): 0.23
ANGEL2 mRNA expression level (221825_at): 0.22
ARMC8 mRNA expression level (203486_s_at): 0.20
ATP2A2 mRNA expression level (212361_s_at): 0.24
ATP2B1 mRNA expression level (212930_at): 0.20
ATP6V0A2 mRNA expression level (205704_s_at): 0.17
BPTF mRNA expression level (232909_s_at): 0.20
C1orf63 mRNA expression level (209006_s_at): 0.15
C1orf79 mRNA expression level (223774_at): 0.16
C1orf82 mRNA expression level (222893_s_at): 0.20
C5orf28 mRNA expression level (219029_at): 0.20
C6orf136 mRNA expression level (227455_at): 0.23
C7orf23 mRNA expression level (204215_at): 0.12
C7orf36 mRNA expression level (223433_at): 0.16
C7orf49 mRNA expression level (220949_s_at): 0.20
C12orf32 mRNA expression level (225837_at): 0.19
C15orf40 mRNA expression level (1552310_at): 0.17
C17orf80 mRNA expression level (223351_at): 0.22
C20orf112 mRNA expression level (225224_at): 0.24
CARD10 mRNA expression level (210026_s_at): 0.23
CASC5 mRNA expression level (228323_at): 0.24
CCDC14 mRNA expression level (225017_at): 0.21
CCNE2 mRNA expression level (205034_at): 0.22
CDC6 mRNA expression level (203967_at): 0.13
CDC7 mRNA expression level (204510_at): 0.18
CDNA FLJ34214 fis, clone FCBBF3021807 mRNA expression level (227087_at): 0.24
CLDND1 mRNA expression level (208925_at): 0.16
CLIP1 mRNA expression level (201975_at): 0.24
DAPK1 mRNA expression level (203139_at): 0.09
DNAJC16 mRNA expression level (212908_at): 0.24
E2F7 mRNA expression level (228033_at): 0.22
EHBP1 mRNA expression level (212653_s_at): 0.16
ELL3 mRNA expression level (219518_s_at): 0.24
ERCC3 mRNA expression level (202176_at): 0.25
EVI1 mRNA expression level (226420_at): 0.17
FAM86C mRNA expression level (65585_at): 0.19
FANCL mRNA expression level (218397_at): 0.15
FBXL5 mRNA expression level (209004_s_at): 0.19
FCHO2 mRNA expression level (228220_at): 0.24
FGF19 mRNA expression level (223761_at): 0.10
FKSG44 mRNA expression level (227964_at): 0.11
FLJ20628 mRNA expression level (221229_s_at): 0.16
FRY mRNA expression level (204072_s_at): 0.23
Full-length cDNA clone CS0DL007YI24 of B cells (Ramos cell line) mRNA expression level (226648_at): 0.22
GRHL1 mRNA expression level (222830_at): 0.24
HDAC4 mRNA expression level (204225_at): 0.21
INTS7 mRNA expression level (222250_s_at): 0.24
IREB2 mRNA expression level (225892_at): 0.12
IXL mRNA expression level (225708_at): 0.20
JAGN1 mRNA expression level (223104_at): 0.15
JUB mRNA expression level (225806_at): 0.25
KCNE3 mRNA expression level (227647_at): 0.20
KIAA0323 mRNA expression level (212355_at): 0.23
KIAA0776 mRNA expression level (212633_at): 0.18
KIAA0859 mRNA expression level (212405_s_at): 0.17
KIF2C mRNA expression level (211519_s_at): 0.20
KIF21A mRNA expression level (226003_at): 0.18
KIN mRNA expression level (205664_at): 0.22
KLHL12 mRNA expression level (225068_at): 0.20
LIPG mRNA expression level (219181_at): 0.21
LOC51315 mRNA expression level (218303_x_at): 0.11
LOC124512 mRNA expression level (225808_at): 0.15
MASTL mRNA expression level (228468_at): 0.23
MCM10 mRNA expression level (220651_s_at): 0.11
METTL3 mRNA expression level (209265_s_at): 0.24
METTL4 mRNA expression level (219698_s_at): 0.22
MKRN1 mRNA expression level (201285_at): 0.20
MLL2 mRNA expression level (227527_at): 0.21
MND1 mRNA expression level (223700_at): 0.17
MYOHD1 mRNA expression level (225947_at): 0.20
NCOA5 mRNA expression level (225145_at): 0.20
NIN mRNA expression level (225921_at): 0.22
NOC3L mRNA expression level (218889_at): 0.23
NPC1 mRNA expression level (202679_at): 0.24
NR2C1 mRNA expression level (204791_at): 0.15
NUPL1 mRNA expression level (223984_s_at): 0.12
NUPL2 mRNA expression level (204003_s_at): 0.21
ORC5L mRNA expression level (204957_at): 0.23
PAXIP1 mRNA expression level (212825_at): 0.23
PCGF1 mRNA expression level (210023_s_at): 0.21
PHACTR4 mRNA expression level (226823_at): 0.25
PHF20L1 mRNA expression level (226942_at): 0.24
PIK3C3 mRNA expression level (204297_at): 0.23
PLEKHA5 mRNA expression level (220952_s_at): 0.16
PMS1 mRNA expression level (213677_s_at): 0.22
POLD3 mRNA expression level (212836_at): 0.16
POLR3E mRNA expression level (222490_at): 0.18
PPM1B mRNA expression level (209296_at): 0.24
PPWD1 mRNA expression level (213483_at): 0.21
RAD54B mRNA expression level (219494_at): 0.18
RBBP6 mRNA expression level (212783_at): 0.17
RBM17 mRNA expression level (224780_at): 0.21
RBMS1 mRNA expression level (209868_s_at): 0.17
REPS1 mRNA expression level (224366_s_at): 0.22
RFC4 mRNA expression level (204023_at): 0.13
RIF1 mRNA expression level (226821_at): 0.13
RPS6KC1 mRNA expression level (218909_at): 0.23
SFXN1 mRNA expression level (230069_at): 0.17
SHPRH mRNA expression level (226366_at): 0.19
SLC17A5 mRNA expression level (223441_at): 0.24
SLC25A19 mRNA expression level (223222_at): 0.25
SLC37A1 mRNA expression level (218928_s_at): 0.22
SMEK2 mRNA expression level (226230_at): 0.19
SMUG1 mRNA expression level (218685_s_at): 0.24
STAMBPL1 mRNA expression level (227606_s_at): 0.19
STXBP3 mRNA expression level (203310_at): 0.19
SYTL2 mRNA expression level (232914_s_at): 0.18
TAF4 mRNA expression level (213090_s_at): 0.21
TMEM177 mRNA expression level (218897_at): 0.24
TNS3 mRNA expression level (217853_at): 0.20
TRIM31 mRNA expression level (210159_s_at): 0.25
TRIP4 mRNA expression level (203732_at): 0.21
TSEN2 mRNA expression level (219581_at): 0.13
TTC4 mRNA expression level (46167_at): 0.22
TUBGCP3 mRNA expression level (203690_at): 0.16
Transcribed locus mRNA expression level (230098_at): 0.17
Transcribed locus mRNA expression level (230177_at): 0.18
Transcribed locus mRNA expression level (235609_at): 0.21
Transcribed locus, moderately similar to XP_518244.1 mRNA expression level (235046_at): 0.11
Transcribed locus, strongly similar to NP_002194.1 integrin alpha 2 precursor mRNA expression level (227314_at): 0.24
Transcribed locus, strongly similar to NP_689873.1 mRNA expression level (228638_at): 0.16
UNC50 mRNA expression level (203583_at): 0.10
WBP4 mRNA expression level (203598_s_at): 0.17
WDR26 mRNA expression level (218107_at): 0.24
WDR67 mRNA expression level (214061_at): 0.09
ZC3HAV1L mRNA expression level (228280_at): 0.23
ZCCHC6 mRNA expression level (220933_s_at): 0.18
ZKSCAN1 mRNA expression level (214670_at): 0.21
ZMIZ1 mRNA expression level (212124_at): 0.16
ZNF518 mRNA expression level (204291_at): 0.18
mRNA expression level, probeset 228106_at (gene name not given): 0.21
mRNA expression level, probeset 235436_at (gene name not given): 0.21
